How the values were obtained:
Type in all cases: biochemical
[1] = system: disintegrated cells of Agrobacterium rhizogenes Bi; assay: α-H-α-amino acid amide racemase activity test with disintegrated cells; conditions: incubation time 139 h; 0.79 w/w % D-leucine amide
Experimental: (§1) After growth of these three strains in Medium A containing 2 g/l of D-α-amino-ε-caprolactam, cells were harvested by centrifugation at 12,000×g. After centrifugation the supernatant was decanted and the wet weight of the pellet was measured. To the pellet, sonification buffer (NaCl, 16 g/l; KCl, 0.74 g/l; Na2HPO4, 0.27 g/l; glucose, 2 g/l; HEPES, 10 g/l, pH 7.0) was added in a 1:2 ratio (wet weight cell pellet:ml buffer). During storage between cell harvest and sonification the pellet was frozen in the sonification buffer at −86° C.
(§2) Sonification was performed with a Soniprep 150 of MSE at maximal amplitude of 20 microns in periods of 10 min. using time intervals of 10 sec. (i.e., 10 sec. sonification, 10 sec. cooling down), cooling the sample on ice/acetone. Each 10 min. the cells were viewed microscopically. The sonification procedure was stopped when >70% of the cells were broken.
(§3) 1 ml Of disintegrated cells of each of the three strains was incubated in a HEPES-NaOH buffer (20 mM) pH 7.7, to which pyridoxal-5-phosphate (0.01 mM) was added as a cofactor and D-leucine amide (60.8 mM) as a substrate in a total volume of 10 ml (0.79 w/w % D-leucine amide). After 0 and 139 hours 1 ml samples were taken (of which the exact weight was measured) and the reaction in these samples was stopped by adding 1 ml methanol (of which the exact weight was measured too; to be able to calculate dilution factors). Stopped reaction mixtures were centrifuged to remove particulates. The supernatants were frozen at −86° C. until HPLC analysis according to the method given in Example 1.

[2] = system: disintegrated cells of Agrobacterium rhizogenes Na; assay: as above; conditions: incubation time 139 h; 0.79 w/w % D-leucine amide
Experimental: as §1, §2, §3

[3] = system: disintegrated cells of Arthrobacter nicotianae; assay: as above; conditions: incubation time 139 h; 0.79 w/w % D-leucine amide
Experimental: as §1, §2, §3

[4] = system: α-H-α-amino acid amide racemase from Ochrobactrum anthropi IA; assay: Substrate specificity, CFE from E. coli TOP10/pKEC_AZAR_3 (Example 7); conditions: relative to the activity towards D-leucine amide; 75 mM substrate, 20 mM EDTA, pH 8.0, 37° C.
Experimental: Two pre-cultures of E. coli TOP10/pKEC_AZAR—3 (see Example 4) were prepared by inoculation of 2 erlenmeyer flasks with 100 ml of 2*TY medium (10 g/l Yeast extract, 16 g/l Tryptone, 5 g/l NaCl) containing 50 mg/l of kanamycin with 10 μl of a glycerol stock per flask. After overnight cultivation at 28° C. and 200 rpm, the pre-cultures were pooled, and subsequently used to inoculate 2 erlenmeyer flasks each containing 1 l of the same medium. Also these flasks were cultivated at 28° C. and 200 rpm for 16-18 h. Cells were harvested by centrifugation (15 min. at 6,200×g, 4° C.), washed with 20 mM HEPES-NaOH, pH 7.5, pooled, weighed, and resuspended in a solution containing 20 mM HEPES-NaOH, pH 7.5, 20 μM pyridoxal-5-phosphate, and 1.3 mM of dithiothreitol in a 1:3 ratio of wet weight cells to solution. Then, cells were disintegrated by 10 min. sonification with a Soniprep 150 of MSE operated at maximum amplitude using time intervals of 10 sec. (i.e., 10 sec. sonification, 10 sec. cooling) and cooling in ice/acetone. Particles were removed by centrifugation, after which sucrose was added to the cell free extract to a final concentration of 0.25 M. The resulting cell free extract (CFE) was stored in aliquots at −20° C. E. coli TOP10/pBAD/Myc-HisC (Invitrogen) cells were treated in exactly the same way and served as negative control.
The substrate specificity of the α-H-α-amino acid racemase from O. anthropi IA was determined by measuring the racemase activity of the above-mentioned CFE towards a number of enantiomerically pure amino acid amides. Each reaction mixture of 10 ml (including the CFE) contained 50 mM HEPES-NaOH, pH 8.0, 20 μM pyridoxal-5-phosphate, 0.4 mg/ml BSA, 1 mM dithiothreitol, 20 mM EDTA and 75 mM of one of the amino acid amides tested. Reactions were started by the addition of 1 ml of the thawed CFE of E. coli TOP10/pKEC_AZAR—3 or E. coli TOP10/pBAD/Myc-HisC (blank) and were incubated at 37° C. At regular time intervals samples of 1 ml were taken and transferred to vials containing 1 ml of 1M H3PO4 to stop the reaction. After sufficient dilution of the samples in 0.4 M borate buffer pH 9.4, the mixtures obtained were analyzed using HPLC to determine the exact concentrations of the two amino acid and two amino acid amide enantiomers according to the following method.
The initial activity for the different substrates tested was calculated from the linear parts of the progress curves, in which the conversion was plotted against the reaction time. Use of the linear part of the progress curves secured that only samples taken at time points at which the substrate concentration was still sufficiently high, were used for the calculations. The conversion was calculated by dividing the amount of amino acid and amino acid amide formed via the racemase reaction (so with the opposite stereochemistry compared to the substrate molecule) by the total amount of two amino acid enantiomers and the two amino acid amide enantiomers.

CC(C)C[C@@H](N)C(N)=O [D-leucine amide]
D-leucine [1]: 0.013 w/w %
D-leucine amide [1]: 0.61 w/w %
L-leucine [1]: 0.025 w/w %
D-leucine [2]: 0.036 w/w %
D-leucine amide [2]: 0.51 w/w %
L-leucine [2]: 0.078 w/w %
D-leucine [3]: 0.002 w/w %
D-leucine amide [3]: 0.56 w/w %
L-leucine [3]: 0.068 w/w %
Rel. initial activity [4]: 100%
